Source: PMC7663597, “Structure–Activity Relationship of Aloperine Derivatives as New Anti–Liver Fibrogenic Agents” (Molecules, 2020)
Counter-ions that a name gives are not always drawn. Marks after values point to notes of the source that are not given here.

Columns and labels:
COL1A1 promotor = COL1A1 promotor luciferase reporter gene assay in TGF-β1-treated LX-2 cells; format: cell-based, human; details: for inhibition at 40 µM / inhibition at 80 µM: Homo sapiens, LX-2, 24 h; for inhibition at 40 µM: 24 h with TGF-β1, read-out: Inhibition Percentage 40 μM (inhibition rate of COL1A1 promotor's activity); for inhibition at 80 µM: 24 h with TGF-β1, read-out: Inhibition Percentage 80 μM (inhibition rate of COL1A1 promotor's activity)
Protocol: A single luciferase reporter gene detection model was applied to evaluate the inhibitory effects of all target compounds on the expression of COL1A1 promotor in human hepatic stellate LX-2 cells at the concentrations of 40 and 80 μM, taking EGCG as the positive control. The LX-2 cell lines were transfected with COL1A1 promotor luciferase plasmid pGL4.17-COL1A1P for 24 h, then simultaneously treated with TGF-β1 and a tested compound for 24 h.
(§1) Cells were maintained on Dulbecco’s Modified Eagle’s medium (DMEM), laid on 96-well plate. DMEM medium was supplemented with 10% fetal bovine serum (FBS) at 37 °C humidified atmosphere with 5% CO2. Furthermore, serum-free culture was required until the cells were confluent at 90−95%. 24 h later the cells were treated with a tested compound (40 and 80 μM) for 24 h. The COL1A1 promotor activity was detected by the Bright-Glo luciferase assay system. Alternatively, to test the acute effects of compound on luciferase activity, 24 h later the cells were lysed and the lysate was treated with a tested compound (80 μM) for 2 h, then the luciferase was detected by the Bright-Glo luciferase assay system (Promega, Madison, WI, USA).

[1] = LX-2 cell survival, sulforhodamine B (SRB) assay; format: cell-based; details: human, LX-2 cells
Protocol: LX-2 cell survival was measured by sulforhodamine B (SRB) assay. The cells were seeded in 96-well plates at the density of 2 × 10^4/well and cultured in DMEM/GlutaMAX I medium with 10% fetal bovine serum (FBS) with 5% CO2, 37 °C. The cells were treated by the aloperine derivates for 24 h, washed by PBS for three times. Then the cells were fixed with 10% (wt/vol) trichloroacetic acid for 1 h and stained with SRB for 0.5 h. Subsequently, the protein-bound dye was dissolved in 10 mM Tris base solution after removing excess SRB dye washing repeatedly with 1% (vol/vol) acetic acid, the optical density (OD) was determined at 510 nm with a microplate reader.

luciferase = molecular target: T1, luciferase (Photinus pyralis, UniProt P08659, K549A/L550V/N119G/N50D/S548I); experiment: Acute effect on luciferase activity (cell lysate, 2 h); format: biochemical; details: 80 μM, 2-h treatment
T1 construct: expressed in transfected cells; host or cells: human hepatic stellate LX-2 cells transfected with pGL4.17-COL1A1P; lysate used
Protocol: Then, their anti-COL1A1 potencies were verified by testing the half maximal inhibition concentration (IC50) values upon COL1A1 expression expression in LX-2 cells. […] Then, compounds 4i, 4n and 4p with the lower IC50 values were selected as the key compounds for further studies.
as §1

[2] = HepG2 cell survival, MTT assay; format: cell-based; details: human, HepG2 cells
Protocol: HepG2 cell survival was measured by MTT assay. HepG2 cells, at density of 6x10^3 cells/well in 96-well culture plates, were incubated with the aloperine derivates at various concentrations until the cells at 50% confluence for 24 h. 20 µL of the MTT (5 mg/mL) solution was added to each plate and incubated with 5% CO2, 37 °C for 4 h. Subsequently, withdrawing the culture supernatant containing MTT, 150 µL DMSO was used for dissolving the formazan crystal. The absorbance was measured using a microplate reader at 570 nm.

T1 sequence (P08659 whole entry N50D/N119G/S548I/K549A/L550V): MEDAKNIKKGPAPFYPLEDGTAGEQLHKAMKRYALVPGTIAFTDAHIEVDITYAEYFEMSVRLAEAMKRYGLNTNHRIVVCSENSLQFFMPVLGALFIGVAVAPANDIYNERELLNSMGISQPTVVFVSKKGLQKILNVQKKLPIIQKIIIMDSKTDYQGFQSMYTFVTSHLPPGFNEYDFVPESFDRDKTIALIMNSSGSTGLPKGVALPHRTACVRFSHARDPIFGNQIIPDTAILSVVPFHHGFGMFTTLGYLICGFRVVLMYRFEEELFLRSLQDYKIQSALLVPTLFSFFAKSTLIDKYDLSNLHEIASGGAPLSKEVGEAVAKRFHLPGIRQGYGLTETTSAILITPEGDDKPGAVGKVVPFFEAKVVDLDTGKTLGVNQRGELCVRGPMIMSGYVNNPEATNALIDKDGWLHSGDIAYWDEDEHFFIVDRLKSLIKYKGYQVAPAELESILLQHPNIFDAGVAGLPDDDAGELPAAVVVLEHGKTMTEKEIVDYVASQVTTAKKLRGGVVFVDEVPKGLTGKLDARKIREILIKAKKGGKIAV

melting point [°C] | SMILES | inhibition at 40 µM (COL1A1 promotor; 40 μM) [%] | inhibition at 80 µM (COL1A1 promotor) [%] | further results
199 to 201 | O=C(CN1CCCC2=C[C@H]3C[C@H](CN4CCCC[C@H]34)[C@@H]21)NC1CCOCC1 (as salt: hydrochloride) [4b, 12N-N′-(Tetrahydro-2H-pyran-4-yl)carbamoylmethyl aloperine hydrochloride] | – | – | –
69 to 71 | CCNC(=O)CN1CCCC2=C[C@H]3C[C@H](CN4CCCC[C@H]34)[C@@H]21 [4a, 12N-N′-Ethylcarbamoylmethyl aloperine] | 7.1 ± 25.6 | 33.1 ± 1.6 | –
– | O=C(CN1CCCC2=C[C@H]3C[C@H](CN4CCCC[C@H]34)[C@@H]21)NC1CCOCC1 [4b, 12N-N′-(Tetrahydro-2H-pyran-4-yl)carbamoylmethyl aloperine hydrochloride] | 19 ± 3.8 | 29.8 ± 10 | –
176 to 178 | O=C(CN1CCCC2=C[C@H]3C[C@H](CN4CCCC[C@H]34)[C@@H]21)NC12CC3CC(CC(C3)C1)C2 [4c, 12N-N′-Adamantylcarbamoylmethyl aloperine] | 23.7 ± 7.7 | 39.2 ± 1.2 | –
66 to 68 | O=C(CN1CCCC2=C[C@H]3C[C@H](CN4CCCC[C@H]34)[C@@H]21)Nc1ccccc1 [4d, 12N-N′-Phenylcarbamoylmethyl aloperine] | 18.6 ± 8.6 | 28.3 ± 2.8 | –
119 to 121 | O=C(CN1CCCC2=C[C@H]3C[C@H](CN4CCCC[C@H]34)[C@@H]21)Nc1ccc(F)cc1 [4e, 12N-N′-(4-Fluorophenyl)carbamoylmethyl aloperine] | 21.4 ± 1.5 | 26.5 ± 0.5 | –
40 to 42 | Cc1cccc(NC(=O)CN2CCCC3=C[C@H]4C[C@H](CN5CCCC[C@H]45)[C@@H]32)c1 [4f, 12N-N′-(3-Methylphenyl)carbamoylmethyl aloperine] | 21.2 ± 0.4 | 33.8 ± 8 | –
50 to 52 | O=C(CN1CCCC2=C[C@H]3C[C@H](CN4CCCC[C@H]34)[C@@H]21)Nc1cccc(OC(F)(F)F)c1 [4g, 12N-N′-(m-Trifluoromethoxyphenyl)carbamoylmethyl aloperine] | 67.8 ± 14.9 | 95.5 ± 5.5 | –
75 to 77 | COC(=O)c1ccc(C)c(NC(=O)CN2CCCC3=C[C@H]4C[C@H](CN5CCCC[C@H]45)[C@@H]32)c1 [4j, 12N-N′-(2-Methyl-5-methoxycarbonylphenyl)carbamoylmethyl aloperine] | 3.8 ± 6.1 | 32.4 ± 2.7 | –
183 to 185 | Cc1cc(NC(=O)CN2CCCC3=C[C@H]4C[C@H](CN5CCCC[C@H]45)[C@@H]32)cc(C)c1C [4k, 12N-N′-(3,4,5-Trimethylphenyl)carbamoylmethyl aloperine] | 50.1 ± 6.9 | 70.7 ± 1.5 | –
74 to 76 | O=C(CN1CCCC2=C[C@H]3C[C@H](CN4CCCC[C@H]34)[C@@H]21)Nc1cccc2ncccc12 [4l, 12N-N′-(5-Quinolyl)carbamoylmethyl aloperine] | 31.5 ± 2.6 | 22.4 ± 16.1 | –
73 to 75 | CN(C(=O)CN1CCCC2=C[C@H]3C[C@H](CN4CCCC[C@H]34)[C@@H]21)c1ccccc1 [4m] | 19.9 ± 5.2 | 34.6 ± 2.5 | –
78 to 80 | O=C(CN1CCCC2=C[C@H]3C[C@H](CN4CCCC[C@H]34)[C@@H]21)N1CCCC1 [4o, 12N-N′-(1-Pyrrolidinyl)carbamoylmethyl aloperine] | 16.5 ± 9.8 | 36.7 ± 9.9 | –
113 to 115 | O=C(CN1CCCC2=C[C@H]3C[C@H](CN4CCCC[C@H]34)[C@@H]21)NS(=O)(=O)c1ccccc1 [7a, 12N-N′-Benzenesulfonyl carbamoylmethyl aloperine] | 21.5 ± 4.3 | 17.1 ± 6.3 | –
105 to 107 | O=C(CN1CCCC2=C[C@H]3C[C@H](CN4CCCC[C@H]34)[C@@H]21)NS(=O)(=O)c1cccc(C(F)(F)F)c1 [7b, 12N-N′-3-Trifluoromethylbenzenesulfonyl carbamoylmethyl aloperine] | 23.5 ± 13.5 | 20.2 ± 1.9 | –
79 to 81 | O=C(CN1CCCC2=C[C@H]3C[C@H](CN4CCCC[C@H]34)[C@@H]21)NS(=O)(=O)c1ccc(Br)c(C(F)(F)F)c1 [7c, 12N-N′-(4-Bromo-3-trifluoromethylbenzenesulfonyl)carbamoylmethyl aloperine] | 32.9 ± 3.4 | 31.8 ± 3.1 | –
93 to 95 | O=C(CN1CCCC2=C[C@H]3C[C@H](CN4CCCC[C@H]34)[C@@H]21)NS(=O)(=O)c1ccc2ccccc2c1 [7d] | 18.8 ± 5.2 | 9.4 ± 3.7 | –
145 to 147 | CCS(=O)(=O)NCC(=O)N1CCCC2=C[C@H]3C[C@H](CN4CCCC[C@H]34)[C@@H]21 [10a, 12N-N′-Ethylsulfonylaminoacetyl aloperine] | 34 ± 7 | 34.9 ± 14.7 | –
98 to 100 | CCCCS(=O)(=O)NCC(=O)N1CCCC2=C[C@H]3C[C@H](CN4CCCC[C@H]34)[C@@H]21 [10b, 12N-N′-n-Butylsulfonylaminoacetyl aloperine] | 41.1 ± 9.6 | 23.7 ± 22.7 | –
63 to 65 | O=C(CNS(=O)(=O)c1ccccc1)N1CCCC2=C[C@H]3C[C@H](CN4CCCC[C@H]34)[C@@H]21 [10c, 12N-N′-Benzenesulfonylaminoacetylaloperine] | 23.7 ± 8.3 | 20.2 ± 6.4 | –
101 to 103 | O=C(CNS(=O)(=O)c1cccc(Br)c1)N1CCCC2=C[C@H]3C[C@H](CN4CCCC[C@H]34)[C@@H]21 [10d, 12N-N′-m-Bromobenzenesulfonylaminoacetyl aloperine] | 28.5 ± 12.3 | 27.1 ± 10.1 | –
91 to 93 | O=C(CNS(=O)(=O)c1cccc(C(F)(F)F)c1)N1CCCC2=C[C@H]3C[C@H](CN4CCCC[C@H]34)[C@@H]21 [10e, 12N-N′-m-Trifluoromethylbenzenesulfonylaminoacetyl aloperine] | 29.7 ± 5.1 | 26.7 ± 21.3 | –
81 to 83 | O=C(CNS(=O)(=O)c1cccc(OC(F)(F)F)c1)N1CCCC2=C[C@H]3C[C@H](CN4CCCC[C@H]34)[C@@H]21 [10f, 12N-N′-m-Trifluoromethoxybenzenesulfonylaminoacetyl aloperine] | 43.4 ± 15.9 | 41.4 ± 7.4 | –
– | O=C(O[C@@H]1Cc2c(O)cc(O)cc2O[C@@H]1c1cc(O)c(O)c(O)c1)c1cc(O)c(O)c(O)c1 [EGCG, reference compound] | – | – | Inhibition Percentage (inhibition rate of COL1A1 promotor's activity) (COL1A1 promotor; at the concentration of 25 μM (positive control)): 27.5 ± 7.9^e %
– | C1=C2CCCN[C@H]2[C@@H]2C[C@H]1[C@H]1CCCCN1C2 [compound 1, Aloperine] | 4.7 ± 3.7 | 2.6 ± 5.2 | –

SMILES | melting point [°C] | inhibition at 40 µM (COL1A1 promotor; 40 μM) [%] | inhibition at 80 µM (COL1A1 promotor) [%] | further results
O=C(CN1CCCC2=C[C@H]3C[C@H](CN4CCCC[C@H]34)[C@@H]21)Nc1ccc(-c2cc3ccccc3[nH]2)cc1 [4h, 12N-N′-[4-(1H-Indol-2-yl)phenyl]carbamoylmethyl aloperine] | 219 to 221 | 99.9 | 99.9 | CC50 at 24 h [1]: 7.5 ± 0.4 µM; Acute effect on luciferase activity (luciferase): minimal inhibition; IC50 (concentration required to inhibit 50% of COL1A1 promotor's activity) (COL1A1 promotor): failed to give a dose-dependent inhibition; Inhibition Percentage 40 μM (inhibition rate of COL1A1 promotor's activity) (COL1A1 promotor; 40 μM, 24 h with TGF-β1): 100.0 ± 0.0%; CC50 at 24 h [2]: 18 ± 1.9 µM
